The source of these data is patent US10512699B2 (Cedars-Sinai Medical Center, priority 2008, dated 2019).

For data set [1], the target named is T1, Aβ plaques (Homo sapiens, UniProt P05067). The data set is described as follows: Ex vivo curcumin staining of brain cryosections and retinas of AD-Tg mice. It is filed as binding, mouse.
Method: Brain cryosections (30 μm thick), retina cross sections (cryosections) (7 μm thick) and whole mount retinas were treated with a permeabilization/blocking solution containing 20% horse serum (Invitrogen) and 0.01-0.1% Triton X-100 (Sigma-Aldrich, St. Louis, Mo.). Sections were stained overnight at 4° C. with a specified combination of the following primary Abs in PBS containing 10% blocking solution: mouse anti-Aβ [human amino-acid residues 1-17; clone 6E10 (1:100; Milipore, Temecula, Calif.)]. […]
Micrographs of stained tissues were obtained on an Axio Imager Z1 ApoTome-equipped microscope (with motorized Z-drive) with AxioCam MRm monochrome camera ver. […] Quantitative analysis of Aβ plaque number and area (mm^2) was performed from two wholemounted retinas per mouse (n=4 mice per group). […] Quantitative analysis of Aβ plaque number and area (mm^2) in the brain was determined from three coronal sections (two hemispheres each) per mouse with 450 μm intervals, over an area covering hippocampal and cortical regions. […] Total area and quantitative levels of immunoreactivity were determined using a standardized custom histogram-based threshold technique, and then subjected to particle analysis.
Data set [2] deals with T1, Aβ plaques. Briefly: Ex vivo curcumin staining of postmortem human whole-mount retinas. It is filed as binding. From the text: We also analyzed the human retinas with antibodies directed against human Aβ.
Autopsy eyes from Alzheimer's patients were procured from the Alzheimer's Disease Research Center, Department of Pathology, University of Southern California (Los Angeles, Calif.), under IRB protocols 99491 and 3201. Healthy donor eyes were purchased from National Disease Research Interchange (NDRI, Philadelphia, Pa.). NDRI has a human tissue collection protocol approved by a managerial committee and subject to National Institutes of Health oversight. Diseased and normal eyes were fixed and stored in 10% neutral buffered formalin. In addition, we used two healthy eyes that were frozen without fixation and stored at −80° C. Whole-mount retinas were prepared from the eyes and further studied by immunohistochemisty.
The samples were covered with GVA mounting media (Zymed).

For data set [3], the target named is T1, Aβ plaques. Briefly: In vivo labeling of Aβ plaques after systemic curcumin administration, tissues examined afterwards. Also on record: species or system mouse.
Method: Mice were anesthetized and perfused with 4% ice-cold buffered PFA, and a group of mice were not perfused. Their eyes were enucleated and fixed immediately in 4% fresh PFA overnight. For whole mount retinas, the eyes were dissected and the anterior part was removed. The eyecups were soaked for 10 minutes in hyaluronidase (type I-S) (0.07 mg/ml) (Sigma) to liquefy and remove the vitreous residues, than washed for 10 minutes×3 in PBS, and the whole mount retinas were collected. For whole eye sectioning, the eyes were put in 30% sucrose in 4% PFA for 2 hours, than washed for 15 minutes×3 in PBS. The eyes were embedded in O.C.T and frozen slowly on dry ice than sagittal sectioned (7 μm) with cryostat. Brains were collected and fixed immediately in 4% fresh PFA overnight. The brains were put in 30% sucrose (in 4% PFA) gradient. Brains were washed for 15 minutes×3 in PBS, next embedded in O.C.T and frozen slowly on dry ice, then coronal sectioned (30 μm) with cryostat. […] Subsequently, brains and eyes were cryosectioned, or prepared for whole mount retina.
Data set [4] deals with T1, Aβ plaques. Briefly: In vivo imaging of the retina in live mice after curcumin injection. The arrangement: species or system mouse. Conditions: single injection 7.5 mg/kg, two hours prior to imaging, excitation 546/15 nm, AD-Tg mice.
Method: To investigate the feasibility of our approach for noninvasive plaque detection, we conducted an in vivo imaging of the retina in live mice using a modified stereomicroscope (Leica S6E) with a wavelength-controlled light source and a digital camera.
Mice were anaesthetized with Ketamine 100 mg/ml/kg and Xylazine 20 mg/ml/kg. Mouse pupils were dilated to about 2 mm in diameter with 0.5% phenylephrine hydrochloride ophthalmic solution (Bausch & Lomb) combined with 0.5% tropicamide ophthalmic solution (Mydral; Bausch & Lomb). During the imaging process, the mice were positioned on a stage of the stereomicroscope, and the eye was covered with a drop of PBS supplemented with calcium and magnesium, which served as an optical coupling medium between the eye surface and the imaging lens. A modified stereomicroscope (Leica S6E) that was adjusted to visualize fluorescence and scatter signals at higher resolution was used to capture images (exposure time 750 ms. with gain 4). The modified stereomicroscope was assembled to include a Polychrome V (Till Photonics) variable wavelength light source, a MicroFire color digital camera (Optronics), and an additional 6× (double convex) magnifying lens, with a focal length of 10 cm. Images were repeatedly captured at several different angles, in order to visualize a larger field and to eliminate non-specific reflection signals.

T1 sequence (P05067 672-713 limits assumed): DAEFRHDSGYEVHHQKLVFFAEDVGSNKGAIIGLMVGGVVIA

`COc1cc(/C=C/C(=O)CC(=O)/C=C/c2ccc(O)c(OC)c2)ccc1O` [curcumin, diferuloylmethane]: the “Curcumin staining of plaques detected by anti-human Aβ antibodies” value on Aβ plaques [1] (hippocampus of AD-Tg mice, brain cryosections, ex vivo) is given as “had an affinity to the same plaques that were detected by antibodies specific to human Aβ”. In addition, the “Curcumin labeling of retinal Aβ plaques” value at Aβ plaques [1] (retinas of AD-Tg mice, whole mount and cross-section, not in non-Tg (wt) mice) was “presence of Aβ plaques labeled by both curcumin and anti-human AP-antibodies”. In addition, on Aβ plaques [2] (human AD retinas, curcumin after immunolabeling), the “Co-localization of curcumin with anti-human Aβ immunolabeling” value is given as “confirmed their co-localization”. The “Plaques detected by curcumin in human retinas” value at Aβ plaques [2] (postmortem AD patient eyes (n=9), after Sudan Black B, none in non-AD eyes) is recorded as “found in all AD patient eyes examined”. For the same molecule, the “Detection of labeled plaques following administered curcumin” value on Aβ plaques [3] (i.v., single or multiple injections, retinas and brains) was “could be detected in the retinas and brains of AD-Tg mice, but not in the non-Tg (wt) controls”. At Aβ plaques [3] (mice, intravenous injection), the “Affinity for Aβ plaques in vivo” value is listed as “high affinity for Aβ plaques in vivo”, the Blood-brain barrier crossing entry is recorded as “crosses the blood-brain barrier” and the Blood-retina barrier crossing result is listed as “also crosses the blood-retina barrier”. In addition, on Aβ plaques [3] (systemically at a single dose of 7.5 mg/kg or given orally), the “Detection of retinal Aβ plaques” value is on record as “effective in detecting retinal Aβ plaques”. On Aβ plaques [4], the “Visibility of curcumin-labeled plaques in live mouse retina” value is “curcumin-labeled plaques were visible”.
